For assay [1], the system named is guinea pig tracheal spiral preparations. Briefly: Bronchodilation in vitro; guinea pig tracheal spiral preparations. In kind it is cell-based. The settings on record: relative to total relaxation evoked in the presence of 10⁻³M isoprenaline; for Emax: Cavia porcellus, read-out: I.A. (Intrinsic Activity, efficacy). The method, then:
Male guinea pigs (300-600g) were stunned by a blow to the head and bled from the carotid artery. The trachea was exposed, dissected free of connective tissue, and transferred to oxygenated krebs solution at 37°C. Next, spirals (2 per trachea) were prepared by cutting the whole trachea spirally along its longitudinal axis and then dividing this spiral lengthwise. Each preparation was mounted, using silk thread, in a 10ml organ bath filled with krebs solution at 37°C and bubbled with 5% CO₂ with O₂. The resting tension of the preparations was set at 2g and changes in muscle tension were monitored isometrically by means of a UFI (2oz) force and displacement transducer (Ormed Ltd) connected to a Linseis pen recorder. All preparations were allowed to equilibrate for 60 minutes. During this equilibration period the preparations were washed by upward displacement at 15 minute intervals and, if necessary, the resting tension was readjusted to 2g using a mechanical micromanipulator system.
Once a steady resting tension had been obtained, the preparations were dosed cumulatively with the test compound (10⁻⁸-2x10⁻⁵M), and finally a maximum relaxation achieved by addition of 10⁻³M isoprenaline. The fall in tension evoked by the test compound was expressed as a percentage of the total relaxation evoked in the presence of 10⁻³M isoprenaline. Appropriate concentration-relaxation curves were then constructed and values for potency (IC₅₀) and efficacy (Intrinsic Activity, I.A.) were obtained.
The compositions of Krebs solution is: sodium chloride 118.07mM, sodium hydrogen carbonate 26.19mM, potassium chloride 4.68mM, potassium orthophosphate 1.18mM, magnesium sulphate septahydrate 1.8mM and calcium chloride 2.52mM;pH ca. 7.45.

Assay [2] concerns Spontaneously hypertensive rats. Briefly: Blood pressure lowering activity, tail cuff method. In kind it is in vivo. Here is the method: Systolic blood pressure were recorded by a modification of the tail cuff method described by I.M. Claxton, M.G. Palfreyman, R.H. Poyser, R.L. Whiting, European Journal of Pharmacology, 37, 179 (1976). A W+W BP recorder, model 8005 was used to display pulses.Prior to all measurements rats were placed in a heated environment (33.5 ± 0.5°C) before transfer to a restraining cage. Each determination of blood pressure was the mean of at least 6 readings. Spontaneously hypertensive rats (ages 12-18 weeks) with systolic blood pressures >180 mmHg were considered hypertensive.

We go through 15 molecules from patent EP0321175A1, “Indane derivatives” (BEECHAM GROUP PLC, priority 1987, dated 1989).

For the molecule `CCc1ccc2c(c1)[C@@H](N1CCCCC1=O)[C@H](O)C2(C)C` (relative stereo) [Example 17, Trans-1,1-Dimethyl-5-ethyl-3-(2-oxopiperidin-1-yl)indan-2-ol], in assay [1], the Emax is 76%.
Take `CCc1ccc2c(c1)[C@@H](n1ccccc1=O)[C@H](O)C2(C)C` (relative stereo) [Example 23, Trans 1,1-Dimethyl-5-ethyl-3-(2-pyridon-1-yl)indan-2-ol]: the “I.A. (Intrinsic Activity, efficacy)” value in assay [1] was 0.92.
As to `C[C@@H]1CCC(=O)N1[C@@H]1c2cc([N+](=O)[O-])ccc2C(C)(C)[C@H]1O` (mixture of isomers) [Example 26, Trans-1,1-Dimethyl-5-nitro-3-(5-(R)-methyl-2-oxopyrrolidin-1-yl)indan-2-ol], in assay [1], the Emax came out at 98%.
For the molecule `O=C(N[C@@H]1c2cc([N+](=O)[O-])ccc2C[C@H]1O)c1ccc(F)cc1` [Example 10, Trans-1-N-(4-fluorobenzamido)-6-nitroindan-2-ol], the Emax in assay [1] worked out at 59%.
`CC1(C)c2ccc([N+](=O)[O-])cc2[C@@H](N2CCCC2=O)[C@@H]1O` (relative stereo) [Example 1, trans - 1,1-dimethyl-5-nitro-3-(2-oxopyrrolidin-1-yl)-indan-2-ol]: the “% change in systolic B.P.” value was -48 ± 4(n=4) % in assay [2] (10 mg/kg p.o., 1 h post dose); -49 ± 6(n=3) % in assay [2] (10 mg/kg p.o., 2 h post dose); -42 ± 4(n=6) % in assay [2] (10 mg/kg p.o., 4 h post dose); -30 ± 4(n=6) % in assay [2] (10 mg/kg p.o., 6 h post dose). In addition, the Emax in assay [1] was found to be 88%.
As to `CC1(C)c2ccc([N+](=O)[O-])cc2[C@@H](n2ccccc2=O)[C@@H]1O` [Example 5, Trans-1,1-dimethyl-5-nitro-3-(2-pyridon-1-yl)indan-2-ol], the “% change in systolic B.P.” value was -40 (n=1) % in assay [2] (1 mg/kg p.o., 1 h post dose); -43 (n=1) % in assay [2] (1 mg/kg p.o., 2 h post dose); -43 ± 4 (n=1) % in assay [2] (1 mg/kg p.o., 4 h post dose); -31 ± 5 (n=5) % in assay [2] (1 mg/kg p.o., 6 h post dose). Further, the Emax in assay [1] is 91%.
As for `CC1(C)C=C(N2CCCCC2=O)c2ccc(C(F)(F)F)cc21` [Example 16, 1,1-dimethyl-3-(2-oxopiperidin-1-yl)-6-trifluoromethylind-2-ene], the Emax in assay [1] was determined as 89%.
As for `CC1(C)c2ccc(C#N)cc2[C@@H](n2ccccc2=O)[C@@H]1O` [Example 7, Trans-5-cyano-1,1-dimethyl-3-(2-pyridon-1-yl)-indan-2-ol], the “% change in systolic B.P.” value in assay [2] (1 mg/kg p.o., 1 h post dose) is on record as -31 ± 3%; in assay [2] (1 mg/kg p.o., 2 h post dose), -22 ± 4%; in assay [2] (1 mg/kg p.o., 4 h post dose) it was -20 ± 4%; in assay [2] (1 mg/kg p.o., 6 h post dose), -12 ± 6%. The Emax in assay [1] was determined as 81%.
For `CC1(C)c2ccc(N)cc2[C@@H](n2ccccc2=O)[C@@H]1O` (relative stereo) [Example 9, Trans-5-amino-1,1-dimethyl-3-(2-pyridon-1-yl)indan-2-ol], the “% change in systolic B.P.” value is listed as -12 ± 2% in assay [2] (3 mg/kg p.o., 1 h post dose); -16 ± 3% in assay [2] (3 mg/kg p.o., 2 h post dose); -14 ± 4% in assay [2] (3 mg/kg p.o., 4 h post dose); -11 ± 2% in assay [2] (3 mg/kg p.o., 6 h post dose).
On to `CC1(C)C=C(n2ccccc2=O)c2cc([N+](=O)[O-])ccc21` [Example 6, 1,1-Dimethyl-5-nitro-3-(2-pyridon-1-yl)ind-2-ene], for which the “% change in systolic B.P.” value in assay [2] (1 mg/kg p.o., 1 h post dose) is -18 ± 3%; in assay [2] (1 mg/kg p.o., 2 h post dose), -18 ± 3%; in assay [2] (1 mg/kg p.o., 4 h post dose) it was -13 ± 3%. In assay [1], the Emax was 95%.
For `CC1(C)C=C(N2CCCCC2=O)c2cc([N+](=O)[O-])ccc21` [Example 4, 1,1-dimethyl-5-nitro-3-(2-oxopiperidin-1-yl)ind-2-ene], the Emax in assay [1] was 94%.
Regarding `CC1(C)C=C(n2ccccc2=O)c2cc(C#N)ccc21` [Example 8, 5-Cyano-1,1-dimethyl-3-(2-pyridon-1-yl)ind-2-ene], the “% change in systolic B.P.” value in assay [2] (1 mg/kg p.o., 1 h post dose) was -12 ± 5%; in assay [2] (1 mg/kg p.o., 2 h post dose), -15 ± 3%; in assay [2] (1 mg/kg p.o., 4 h post dose), -26 ± 8%; in assay [2] (1 mg/kg p.o., 6 h post dose) it was -21 ± 2%. Besides, the Emax in assay [1] was 77%.
The like results for `CC1(C)c2ccc([N+](=O)[O-])cc2[C@@H](N2CCCCC2=O)[C@@H]1O` (relative stereo) [Example 3, Trans 1,1-Dimethyl-5-nitro-3-(2-oxopiperidin-1-yl) indan-2-ol] were, in that order, -33 ± 5 (n=5) %, -17 ± 3 (n=4) %, -22 ± 4 (n=6) %, -19 ± 5 (n=6) % and 89%.
`C[C@@H]1CCC(=O)N1C1=CC(C)(C)c2ccc([N+](=O)[O-])cc21` [Example 27, 1,1-dimethyl-5-nitro-3-(5-(R)-methyl-2-oxopyrrolidin-1-yl)ind-2-ene]: in assay [1], the Emax is 93%.
In the case of `CC1(C)C=C(CN2CCCC2=O)c2cc(C#N)ccc21` [Example 24, 5-Cyano-1,1-dimethyl-3-[(2-oxopyrrolidin-1-yl)methyl]ind-2-ene], in assay [1], the Emax stood at 59%.
